# PubChem BioAssay AID1996
# Details: buffer; pH 7.4; 200.0 µM
row,SMILES,solubility kinetic
1,CCc1ccc(CCC(=O)Nc2ccc(C(=O)O)cc2)o1,> 43.1 µg/mL
2,Cc1ccccc1CC(=O)N1CCCc2ccccc21,36.5 µg/mL
3,CCOC(=O)CCCNC(=O)CCNC(=O)c1ccc(OCCC(C)C)cc1,> 58.9 µg/mL
4,CCOc1cc(C(=O)N=c2sccn2C)ccc1OC(F)F,45.4 µg/mL
5,COc1ccc(S(=O)(=O)NCc2ccccn2)cc1OC,43 µg/mL
6,CCSc1nsc(NC(=O)Nc2ccc(F)cc2F)n1,1.7 µg/mL
7,Cc1ccc(CNC(=O)c2cc3ccccc3oc2=O)cc1,1.2 µg/mL
8,Cc1ccc2nc(-c3ccccc3)cc(C(=O)N3CC(C)OC(C)C3)c2c1 (stereo not given),49.1 µg/mL
9,Cc1cc(C)c(S(=O)(=O)NC2CC(C)(C)NC(C)(C)C2)cc1C,33.5 µg/mL
10,CN(C)/C=C1\C(=O)Oc2ccccc2C1=O,32.4 µg/mL
11,CCOC(=O)C1=C(C)OC(N)=C(C#N)C1c1cccc(C)c1 (stereo not given),43.7 µg/mL
12,CCOC(=O)Nc1cccc(OCC(=O)Nc2ccc3c(c2)CCC3)c1,5.2 µg/mL
13,CCC1(c2ccc(F)cc2)NC(=O)N(CC(=O)NC2CCCC(C)C2C)C1=O (stereo not given),13.2 µg/mL
14,COc1cc2ccccc2cc1C(=O)N1CCc2ccccc21,1.9 µg/mL
15,COCCn1c(C)cc(C(=O)CN2c3cccc4cccc(c34)S2(=O)=O)c1C,3.5 µg/mL
16,O=C(OCc1cccc(C(F)(F)F)c1)c1ccc[nH]c1=O,> 44.6 µg/mL
17,COc1ccc(Cl)cc1NC(=S)NCc1cccs1,37.3 µg/mL
18,O=C(COC(=O)c1c(F)cccc1Cl)NC1CCCCC1,> 47.1 µg/mL
19,COc1ccc(C(=O)Nc2cccc3c2CCCC3)cc1OC,1 µg/mL
20,O=C(c1c(F)cccc1F)N1CCCC1,> 31.7 µg/mL
21,Cc1c(C(=O)C(=O)NCC2CCCO2)c2ccccc2n1C (stereo not given),> 45.1 µg/mL
22,COc1ccc(OC)c(C(=O)c2coc3ccc(O)c(CN(C)C)c23)c1.Cl,> 58.8 µg/mL
23,O=S(=O)(c1ccc(-c2ccccc2)cc1)N1CCCC1,3 µg/mL
24,Cc1ccccc1Oc1nc(-c2ccccn2)nc2ccccc12,35 µg/mL

row,SMILES,solubility kinetic
1,Cc1ccc(NC(=O)N2CCCC(C(=O)O)C2)cc1 (stereo not given),> 39.3 µg/mL
2,COc1ccc(NC(=S)N2CCCC2)cc1OC,> 40 µg/mL
3,CCOC(=O)Cn1cc(C(=O)C(C)(C)C)c2ccccc21,> 43.1 µg/mL
4,CC1CCCN(S(=O)(=O)c2cccc(C(=O)OCC(=O)N(C)Cc3c(F)cccc3Cl)c2)C1 (stereo not given),8.8 µg/mL
5,O=C(c1cn(Cc2ccccc2)c2ccccc12)C1CC1,< 0.6 µg/mL
6,COc1ccc(C2CC(=O)C(C=NCCCO)=C(O)C2)cc1 (stereo not given),> 45.5 µg/mL
7,c1csc(-c2cn3ccc4ccccc4c3n2)c1,10.7 µg/mL
8,S=C(NC1CC1)N1CCc2ccccc2C1,> 34.9 µg/mL
9,CC(C)(C)NC(=O)/C(=C\c1ccco1)NC(=O)c1ccco1,> 45.3 µg/mL
10,O=C(CNC(=O)c1ccc(C(F)(F)F)cc1)NC1CC1,> 42.9 µg/mL
11,COc1ccc(C(=O)N2CCC(O)(c3ccc(Cl)cc3)CC2)cc1OC,> 56.4 µg/mL
12,Cc1ccccc1OCCNC(=O)c1ccco1,> 36.8 µg/mL
13,CCc1ccc(NC(=O)NCc2cccnc2)cc1,> 38.3 µg/mL
14,COc1cc(/C=C/C(=O)OCC(=O)NC2CCCCCCC2)ccc1O,36.2 µg/mL
15,NC(=O)c1ccc(NC(=O)CSC(=O)c2ccccc2)cc1,16.4 µg/mL
16,Cc1cccc(C)c1NC(=O)CNC(=O)c1c(C)nn(C)c1Cl,> 50.2 µg/mL
17,Cc1onc(-c2c(F)cccc2Cl)c1C(=O)N=C(N)N1CC(C)OC(C)C1 (stereo not given),0.8 µg/mL
18,CN(C)/C=C/C(=O)c1cccc(Oc2ncccn2)c1,> 40.4 µg/mL
19,COc1ccc(NC(=S)N2CCc3ccccc32)cc1OC,> 47.2 µg/mL
20,OCC1(Cc2ccccc2)CCCN(Cc2c[nH]c3ccccc23)C1 (stereo not given),36 µg/mL
21,COC(=O)c1c(Sc2ccccc2)c2ccccc2n1C,< 0.6 µg/mL
22,Cl.O=C(O)C1CCN(Cc2cccnc2)CC1,> 38.5 µg/mL
23,CN(C(=O)COc1ncnc2ccccc12)C1CCCCC1,39 µg/mL
24,Cc1ccc(N2C(=O)CN=C2Nc2nc(C)cc(C)n2)cc1,> 44.3 µg/mL

row,SMILES,solubility kinetic
1,O=C1CC(C2CCCO2)C(=O)N1c1ccc(Cl)c(Cl)c1 (stereo not given),> 47.1 µg/mL
2,O=c1oc2ccccc2n1Cc1cccc(F)c1,8.3 µg/mL
3,O=C(NCc1cccnc1)Nc1ccccc1Cl,> 39.3 µg/mL
4,O=C(Cc1ccccc1Cl)N1CCN(c2ccccn2)CC1,> 47.4 µg/mL
5,COCCn1c(SCC(=O)c2ccccc2)nc2c(c1=O)SCC2,42.5 µg/mL
6,O=C(Nc1ccc(Cl)cc1)N1CCCC(Cn2cccc2)C1 (stereo not given),> 47.7 µg/mL
7,O=C(Cc1ccc(O)cc1)N/N=C/c1cccnc1,> 38.3 µg/mL
8,COc1ccc(N2CCC(CNC(=O)Nc3cccc(OC)c3)C2)cc1 (stereo not given),34.5 µg/mL
9,CC1(C)Cn2c(nc(=O)c3c2NCN(CCc2ccccc2)C3)S1,> 51.4 µg/mL
10,CCC(Oc1ccccc1)C(=O)Nc1ccccc1N1CCCCC1 (stereo not given),0.7 µg/mL
11,O=C(Nc1ccc2[nH]c(=O)[nH]c2c1)c1ccc([N+](=O)[O-])o1,15.6 µg/mL
12,COc1cc2nc(C(C)(C)C)oc(=O)c2cc1OC,> 39.5 µg/mL
13,Cc1nc2nc(SCc3nc4ccccc4[nH]3)[nH]c2cc1Br,1.1 µg/mL
14,COC(=O)c1ccc(NC(=O)c2cc[n+](Cc3ccccc3)cc2)cc1.[Cl-],50.7 µg/mL
15,COc1ccc(NS(=O)(=O)c2cccc(C(=O)NCC(c3cccs3)N3CCOCC3)c2)cc1 (stereo not given),71.3 µg/mL
16,COC(=O)c1ccc(NC(=S)N2CCN(CCO)CC2)cc1,> 48.5 µg/mL
17,COc1ccc(N2CCN(C(=O)CN3C(=O)NC4(CCCCC4C)C3=O)CC2)cc1 (stereo not given),> 62.2 µg/mL
18,COc1cccc(N2C(=O)c3cccnc3C2O)c1 (stereo not given),34.4 µg/mL
19,CC(C)[C@H](NC(=O)c1ccc(C(C)(C)C)cc1)C(=O)N1CCN(Cc2ccc3c(c2)OCO3)CC1,7.9 µg/mL
20,CCCCN(C)C(=O)c1nc2ccccn2c1CN1CCSCC1,48.3 µg/mL
21,COC(=O)C(NC(C)=O)(Nc1ccc(C)cn1)C(F)(F)F (stereo not given),> 45.8 µg/mL
22,Cc1ccc(-c2noc(-c3c(C)noc3C)n2)cc1,< 0.2 µg/mL
23,N#Cc1c(-c2cccnc2)c2c([nH]c1=O)-c1ccccc1OC2,> 45.2 µg/mL
24,S=C1NCN(Cc2ccco2)CN1CCc1ccccc1,9.6 µg/mL

row,SMILES,solubility kinetic
1,O=C(O)c1cc(-c2ccccc2Cl)n(-c2ccc(F)cc2)n1,> 47.5 µg/mL
2,Cc1ccc(C)c(NC(=O)NCc2ccccn2)c1,35.4 µg/mL
3,Cc1nc2cc(N)ccc2n1C1CCCCC1.Cl,> 45.3 µg/mL
4,N#C/C(=C\Nc1ccc(Cl)cn1)S(=O)(=O)c1ccccc1,< 0.2 µg/mL
5,Cc1cc(S(=O)(=O)Nc2cccc(Cl)c2)c(C)s1,37.4 µg/mL
6,COc1ccc(CCNC(=O)c2coc3ccccc3c2=O)cc1,1.7 µg/mL
7,Cc1ccc(S(C)(=O)=NC(=O)NC(=O)c2c(Cl)cccc2Cl)cc1 (stereo not given),41.3 µg/mL
8,CCOc1ccccc1NC(=S)NC(=O)C1CC1,2.6 µg/mL
9,Cc1ccc(OCC(=O)Oc2ccccc2[N+](=O)[O-])cc1,17.4 µg/mL
10,COc1cc2ncnc(NCc3ccccc3F)c2cc1OC,41.8 µg/mL
11,O=C(O)C(Cc1ccc(O)cc1)N1C(=O)c2ccccc2C1=O (stereo not given),> 46.7 µg/mL
12,COC(=O)c1c(C)[nH]c(C(=O)NCc2ccco2)c1C,35.3 µg/mL
13,Cc1cccc(OCC(=O)Nc2ccncc2)c1C,37.8 µg/mL
14,CCOC(=O)Cc1csc(NC(=O)c2ccc(C)cc2)n1,45.6 µg/mL
15,CNc1snc(C)c1C(=O)OCC(=O)N(C)Cc1ccccc1,49.8 µg/mL
16,Cc1ccc(S(=O)(=O)NC2CC(C)(C)NC(C)(C)C2)cc1,40.5 µg/mL
17,O=C(COC(=O)Cc1ccc(Cl)cc1)NCc1cccs1,35.1 µg/mL
18,COc1cc(CO)ccc1OCC(=O)N1CCc2ccccc21,> 47 µg/mL
19,CCc1ccc2nc(Nc3ncc(C(C)=O)c(C)n3)nc(C)c2c1,6.9 µg/mL
20,CSc1ccc(C2N=C(c3ccccc3)NO2)cc1 (stereo not given),11.9 µg/mL
21,O=C(NCC(c1ccc(F)cc1)N1CCOCC1)c1ccc(OCc2ccccc2)cc1 (stereo not given),5.8 µg/mL
22,COCCNC(=O)c1ccc(CSc2nc3ccccc3s2)cc1,27.6 µg/mL
23,CN(C)CCSc1nc2cc(S(=O)(=O)N3CCCCC3)ccc2o1,41.7 µg/mL
24,O=C(Nc1cccc([N+](=O)[O-])c1)C1COc2ccccc2O1 (stereo not given),5.4 µg/mL

row,SMILES,solubility kinetic
1,O=C(OCC(=O)N1CCCC1)c1c(Cl)ccc(Cl)c1Cl,39 µg/mL
2,Cc1cccc(-c2nc(Nc3ccc(O)cc3)c3ccccc3n2)c1,5.8 µg/mL
3,NC(=O)c1ccsc1NC(=O)Cc1ccc([N+](=O)[O-])cc1,12 µg/mL
4,CC12CC3CC(C)(C1)CC(C(=O)N1CCCC1)(C3)C2,3.9 µg/mL
5,CCN1C(=O)c2ccc(C(=O)Nc3ccc(O)cc3C)cc2C1=O,> 48.7 µg/mL
6,COC(=O)c1ccc(COc2ccc(NC(C)=O)cc2)o1,> 43.4 µg/mL
7,Cc1ccc(C(=O)NNC(=O)c2ccncc2)cc1[N+](=O)[O-],> 45 µg/mL
8,COc1ccc(CCNC(=O)Cc2ccsc2)cc1,> 41.3 µg/mL
9,Cc1cc(NC(=O)Cc2ccsc2)ccc1Br,4.5 µg/mL
10,COc1ccc(CC(=O)Nc2ccc3nc(SC)sc3c2)cc1OC,34.3 µg/mL
11,Cc1noc(C)c1C(=O)Nc1nccs1,> 33.5 µg/mL
12,O=C(Nc1ccccc1N1CCCC1)C1CCCO1 (stereo not given),> 39.1 µg/mL
13,O=C(c1cccc(NS(=O)(=O)c2ccccc2)c1)N1CCCC1,43.9 µg/mL
14,Cc1ccc(-c2csc3nc(C(C)C)oc(=O)c23)c(C)c1,3.9 µg/mL
15,N#Cc1cccnc1N1CCN(C(=O)c2cccs2)CC1,> 44.8 µg/mL
16,CN(C1CCS(=O)(=O)C1)S(=O)(=O)c1ccc2ccccc2c1 (stereo not given),9.2 µg/mL
17,N#CC1(NC(=O)CSc2nc3ccccc3o2)CCCCC1,> 47.3 µg/mL
18,O=C(NCC1CCCO1)c1cccnc1NCc1ccc(F)cc1 (stereo not given),> 49.4 µg/mL
19,CCc1ccc(-c2cc(C(=O)O)c3ccccc3n2)s1,> 42.5 µg/mL
20,O=C(Nc1cccc2ncccc12)c1ccc([N+](=O)[O-])o1,> 42.5 µg/mL
21,Cc1cc2oc(C(=O)N3CCN(Cc4ccccc4)CC3)c(C)c2cc1C,3.7 µg/mL
22,Cn1c(SCC(=O)Nc2cccnc2Cl)nnc1-c1ccco1,> 52.5 µg/mL
23,CCN(CC)C(=O)c1cc2c(=O)n3cccc(C)c3nc2s1,43.4 µg/mL
24,Cc1ccc(CN2CCSCC2)cc1,7.4 µg/mL
